Measured values as given in publication PMC11434980, “Deciphering Chemical Rules for Drug Penetration into Strongyloides” (Pharmaceutics, 2024).
Entries after “also recorded” stand apart in the source; their conditions may differ. Like-named read-outs stand apart in the source and are kept apart here.

Tests used:
[1] = test system: S. venezuelensis L3s; assay: Staining (uptake) of L3 larvae by the dyes; format: cell-based, Strongyloides venezuelensis; details: for lowest staining concentration (Conc): 72 h
Procedure: (§1) Baerman-obtained S. venezuelensis L3s were rinsed twice with distilled water and counted, and 100 to 150 larvae were placed per well in 96-well flat-bottom culture plates. Larvae were incubated at 28 °C for 30 min to allow adaptation and treated with compounds in the range of 0.5–40 µM for 72 h at 28 °C in a humid atmosphere. Mortality was assessed as the lack of any movement detected during 1 min of observation under an inverted microscope (40×), at 24, 48, and 72 h after treatment. The ability to stain the larvae was pointed out when observed; at 72 h, larvae were collected and washed two times with distilled water and placed in a new well to remove the background color and photographed. Pictures were also taken at 24 and 48 h without cleaning the larvae so as not to interfere with the 72 h readout of the experiment. […] All experiments were conducted in triplicate and at least three different times. The antiparasitic activity of the compounds was expressed as the concentration that inhibited the motility of half of the larvae (immobilization concentration 50, IC50).

[2] = test system: S. venezuelensis L3s; assay: microbe, parasite or virus in culture; details: for significant activity against the L3s: L3 motility, 72 h of treatment
Procedure: as §1
A total of 15 dyes were tested against S. venezuelensis L3s at a 20 µM concentration. The activity was determined by the number of larvae lacking motility relative to the total number in the well after 1 min of light excitation at 24, 48, and 72 h after treatment.

[3] = test system: parasitic females of S. venezuelensis; assay: In vitro activity against adult females (movement categories); format: cell-based, Strongyloides venezuelensis; details: for effect on adult females / Activity against parasitic females 1 h / Activity against parasitic females 24 h / Activity against parasitic females 48 h / Activity against parasitic females 72 h: 10 µM, 50–70 worms per well; for Activity against Adults @10 µM 72 h: adult females
Procedure: Seven to nine days after infection, the mice or rats were euthanized and the small intestine was removed, sliced longitudinally, minced, and placed in a sedimentation cup wrapped in 8 layers of gauze in phosphate-buffered solution (PBS) for two hours at 37 °C. Parasitic females were collected from the sediment and washed twice with saline solution (NaCl 0.15 mol/L) and twice with Roswell Park Memorial Institute 1640 (RPMI 1640) (Gibco, Whaltman, MA, USA) supplemented with 10% heat-inactivated FBS, 100 µg/mL streptomycin, and 100 U/mL penicillin (Gibco, Whaltman, MA, USA) to avoid contamination during the in vitro assays. After collection, females were placed in 96-well plates with supplemented RPMI medium and kept at 37 °C. We tested three different female population densities to explore the effects on the measured activity: 1–3 females, 10–15 females, and 50–70 females per well. At 24 h after plating, the compounds were applied at 10 µM and the anti-parasitic activity was evaluated at 1, 24, 48, and 72 h after treatment based on movement for 30 s observation periods under the microscope (40×). […] All experiments were conducted in duplicate and at least three different times. […]

[4] = test system: HeLa (human cervical cancer) cell line; assay: Cytotoxicity, MTT method; format: cell-based; details: for antiproliferative activity against HeLa cells at 10 µM / IC50: MTT; for IC50: HeLa cells, 72 h, read-out: HeLa IC50 (antiproliferative activity / cytotoxicity)
Procedure: (§2) A cytotoxicity test was performed using the HeLa (human cervical cancer) cell line according to the MTT method. Cells were from the ATCC (Manassas, VA, USA). They were cultured at 37 °C in sub-confluent conditions under a 95% humidified atmosphere and 5% CO2 in Dulbecco’s Modified Eagle Medium (DMEM) (Gibco, Whaltman, MA, USA) supplemented with 10% heat-inactivated FBS, 2 mM L-glutamine, 100 U/mL penicillin, and 100 µg/mL streptomycin. […] The antiproliferative activity was measured in triplicate after 72 h using the MTT (3-(4,5-dimethylthiazol-2-yl)-2,5-diphenyltetrazolium bromide) Cell Proliferation Kit (Roche, Boston, MA, USA), following the manufacturer’s specifications. […] The selectivity index (SI = HeLa IC50/L3 IC50) for each compound was calculated to compare the antiparasitic activity with its respective human cell cytotoxicity.

[5] = Cytotoxicity, MTT method; format: cell-based, human; details: human; HeLa cells, 72 h, MTT; read-out: HeLa IC50 (antiproliferative activity / cytotoxicity)
Procedure: as §2

[6] = test system: parasitic females of S. venezuelensis; assay: Staining of adult females by the dyes; format: cell-based, Strongyloides venezuelensis; details: 10 µM; for Staining (Time): time at which staining of females was seen
[7] = L3S, 72 h, read-out: IC50 72 h (L3)
[8] = read-out: IC50 72 h (immobilization concentration 50 of cultured L3s), L3s, 72 h
[9] = read-out: IC50 24 h (immobilization concentration 50 of cultured L3s), L3s, 24 h
[10] = read-out: IC50 48 h (immobilization concentration 50 of cultured L3s), L3s, 48 h

Compound: Cc1c(C(=O)O)c(O)cc2c1C(=O)c1c(O)c(C3O[C@H](CO)[C@@H](O)[C@H](O)[C@H]3O)c(O)c(O)c1C2=O (stereo in doubt) [Carmine]
- Staining 72 h (L3 staining ability) [1]: No
- significant activity against the L3s [2]: did not show significant activity
- Screening 20 µM 72 h ([2]; L3s, 72 h): No

Compound: CCCSc1ccc2nc(NC(=O)OC)[nH]c2c1 [Albendazole]
- effect on adult females [3]: slightly reduced movement
- Activity against parasitic females 1 h [3]: Healthy
- Activity against parasitic females 24 h [3]: Healthy
- Activity against parasitic females 48 h [3]: Slightly affected
- Activity against parasitic females 72 h [3]: Slightly affected
- Screening 20 µM 72 h ([2]; L3s, 72 h): No
- activity against L3 at 40 µM ([2]; L3s): no activity
- selectivity index (SI = HeLa IC50/L3 IC50) [4]: < 0.0075
- IC50 at 72 h [5]: 0.3 µM

Compound: Cc1ccc2nc(NC(=O)c3cccnc3)sc2c1 [Compound 20, N-(6-methylbenzo[d]thiazol-2-yl)nicotinamide]
- Activity against Adults @10 µM 72 h [3]: did not show any potency; also recorded: Healthy
- IC50 [2, 7]: > 20 µM
- Activity against L3 @20 µM 72 h ([2]; L3s, 72 h): did not show any activity and no in vitro activity and No
- antiproliferative activity against HeLa cells at 10 µM [4]: no antiproliferative activity

Compound: Cc1ccc2nc(NC(=O)c3ccc(N4CCN(C)CC4)nc3)sc2c1 [Compound 22, N-(6-methylbenzo[d]thiazol-2-yl)-6-(4-methylpiperazin-1-yl)nicotinamide]
- Activity against Adults @10 µM 72 h [3]: slightly affecting but not killing; also recorded: Slightly affected
- IC50 [2, 7]: 8.6 ± 2.3 µM
- mortality at 20 µM ([2]; L3S, 72 h, read-out: L3 mortality rate): 100%
- Activity against L3 @20 µM 72 h ([2]; L3s, 72 h): Yes
- antiproliferative activity against HeLa cells at 10 µM [4]: no antiproliferative activity

Compound: Nc1c(/N=N/c2ccc(-c3ccc(/N=N/c4cc(S(=O)(=O)O)c5ccccc5c4N)cc3)cc2)cc(S(=O)(=O)O)c2ccccc12 [Congo Red]
- Staining 72 h (L3 staining ability) [1]: No
- significant activity against the L3s [2]: did not show significant activity
- Screening 20 µM 72 h ([2]; L3s, 72 h): No

Compound: CCCCCCCCCCCCCCCCCCOCC(COP(=O)([O-])OCC[N+](C)(C)C)OC (stereo not drawn) [Edelfosine]
- Screening 20 µM 72 h ([2]; L3s, 72 h): No

Compound: O=[N+]([O-])c1ccc2c(N=Nc3ccc4ccccc4c3O)c(O)cc(S(=O)(=O)[O-])c2c1.[Na+] [Eriochrome Black T]
- Staining 72 h (L3 staining ability) [1]: No
- significant activity against the L3s [2]: did not show significant activity
- Screening 20 µM 72 h ([2]; L3s, 72 h): No
- IC50 [2, 8]: > 40 µM

Compound: CC(=O)Oc1ccc2c(c1)Oc1cc(OC(C)=O)ccc1C21OC(=O)c2ccccc21 [Fluorescein Diacetate]
- Staining 72 h (L3 staining ability) [1]: No
- significant activity against the L3s [2]: did not show significant activity
- Screening 20 µM 72 h ([2]; L3s, 72 h): No

Compound: Cc1cc(C(=C2C=CC(=N)C=C2)c2ccc(N)cc2)ccc1N [Fuchsine]
- Staining 72 h (L3 staining ability) [1]: Yes
- lowest staining concentration (Conc) [1]: 2 µM
- Activity against parasitic females 1 h [3]: Healthy
- Activity against parasitic females 24 h [3]: Healthy
- Activity against parasitic females 48 h [3]: Healthy
- Activity against parasitic females 72 h [3]: Healthy
- Screening 20 µM 72 h ([2]; L3s, 72 h): Active
- IC50 [2, 9]: 7.4 ± 1.3 µM
- IC50 [2, 10]: 6.8 ± 0.9 µM
- IC50 [2, 8]: 3.2 ± 0.4 µM
- IC50 [4]: 1 µM
- Staining of parasitic females [6]: No
- staining of adult females [6]: did not stain

Compound: Oc1cc2c(cc1O)[C@@H]1c3ccc(O)c(O)c3OC[C@]1(O)C2 [Hematoxylin]
- Staining 72 h (L3 staining ability) [1]: No
- significant activity against the L3s [2]: did not show significant activity
- Screening 20 µM 72 h ([2]; L3s, 72 h): No

Compound: O=C1/C(=C2\Nc3ccc(S(=O)(=O)[O-])cc3C2=O)Nc2ccc(S(=O)(=O)[O-])cc21.[Na+].[Na+] [Indigo Carmine]
- Staining 72 h (L3 staining ability) [1]: No
- significant activity against the L3s [2]: did not show significant activity
- Screening 20 µM 72 h ([2]; L3s, 72 h): No
- IC50 [2, 8]: > 40 µM

Compound: COC(=O)Nc1nc2ccc(C(=O)c3ccccc3)cc2[nH]1 [Mebendazole]
- effect on adult females [3]: slightly reduced movement
- Activity against parasitic females 1 h [3]: Healthy
- Activity against parasitic females 24 h [3]: Healthy
- Activity against parasitic females 48 h [3]: Slightly affected
- Activity against parasitic females 72 h [3]: Slightly affected
- Screening 20 µM 72 h ([2]; L3s, 72 h): No
- activity against L3 at 40 µM ([2]; L3s): no activity
- selectivity index (SI = HeLa IC50/L3 IC50) [4]: < 0.005
- IC50 at 72 h [5]: 0.2 µM

Compound: CN(C)c1ccc(N=Nc2ccc(S(=O)(=O)[O-])cc2)cc1.[Na+] [Methyl Orange]
- Staining 72 h (L3 staining ability) [1]: No
- significant activity against the L3s [2]: did not show significant activity
- Screening 20 µM 72 h ([2]; L3s, 72 h): No
- IC50 [2, 8]: > 40 µM

Compound: CC[N+](C)(CC)CCC[n+]1c(-c2ccccc2)c2cc(N)ccc2c2ccc(N)cc21.[I-].[I-] [Propidium Iodide]
- Staining 72 h (L3 staining ability) [1]: Yes
- lowest staining concentration (Conc) [1]: 3 µM
- effect on adult females [3]: significantly affected
- Activity against parasitic females 1 h [3]: Slightly affected
- Activity against parasitic females 24 h [3]: Slightly affected
- Activity against parasitic females 48 h [3]: Slightly affected
- Activity against parasitic females 72 h [3]: Affected/Some deaths
- Screening 20 µM 72 h ([2]; L3s, 72 h): Active
- IC50 [2, 9]: 14.5 ± 4.6 µM
- IC50 [2, 10]: 9.8 ± 3.2 µM
- IC50 [2, 8]: 4.3 ± 0.6 µM
- Staining of parasitic females [6]: Yes
- staining of adult females [6]: living worms were not strongly stained
- Staining (Time) [6]: 72 h

Compound: Oc1ccc2ccccc2c1N=Nc1ccc(N=Nc2ccccc2)cc1 [Sudan III]
- Staining 72 h (L3 staining ability) [1]: No
- significant activity against the L3s [2]: did not show significant activity
- Screening 20 µM 72 h ([2]; L3s, 72 h): No
- IC50 [2, 8]: > 40 µM

Compound: Cc1cc(-c2ccc(/N=N/c3c(S(=O)(=O)O)cc4cc(S(=O)(=O)O)cc(N)c4c3O)c(C)c2)ccc1/N=N/c1c(S(=O)(=O)O)cc2cc(S(=O)(=O)O)cc(N)c2c1O [Trypan Blue]
- Staining 72 h (L3 staining ability) [1]: Yes
- lowest staining concentration (Conc) [1]: 20 µM
- significant activity against the L3s [2]: did not show significant activity
- IC50 at 72 h [5]: > 10 µM

Compound: Brilliant Cresyl Blue
- Staining 72 h (L3 staining ability) [1]: Yes
- lowest staining concentration (Conc) [1]: 2.5 µM
- effect on adult females [3]: significantly affected
- Activity against parasitic females 1 h [3]: Healthy
- Activity against parasitic females 24 h [3]: Slightly affected
- Activity against parasitic females 48 h [3]: Affected
- Activity against parasitic females 72 h [3]: Affected
- Screening 20 µM 72 h ([2]; L3s, 72 h): Active
- IC50 [2, 9]: 14 ± 4.1 µM
- IC50 [2, 10]: 9.6 ± 0.6 µM
- IC50 [2, 8]: 6.8 ± 0.7 µM
- IC50 [4]: > 250 µM
- Staining of parasitic females [6]: Yes
- staining of adult females [6]: stained adult females after 24 h in some localized structures
- Staining (Time) [6]: 24 h
